Data: patent publication US9963452B2, “Methods, compounds, and compositions for inhibition of ROS” (AUGUSTA PHARMACEUTICALS INC., priority 2013, dated 2018)

Legend:
Format in all cases: cell-based
[1] = system: U138 glioblastoma cell line; assay: In-vitro cell survival assay (Alamar blue), U138; conditions: U138, one day after compound addition
Method: (§1) Five tumor-derived cell lines were treated with the ROS inhibitor compounds and cell survival was monitored to determine the cancer prohibition effects of the compounds. The cell lines included HeLa, a cervical cancer cell line, and four glioblastoma cell lines U138, U87, LN18, and U118. The basic protocol for the in-vitro cell survival assay is the same for all five cell lines. In particular, the cells were seeded in 96-well plates at 2-5×10^3 cells/well (cell line dependent) in culture medium. The cells were grown for 2 days before the compounds were dissolved in DMSO and added to final concentrations of 100 uM, 10 uM, or 1 uM (DMSO final concentration 0.5%). The cell culture was then assayed one day after the addition of the compounds. The assay used Alamar blue as a redox-sensitive dye that interrogates mitochondrial fitness of cells, and these assays provided a readout for cell proliferation and viability. The raw values were normalized to an average of several vehicle control wells and are presented as percent decrease in proliferation/viability, which is converted to half maximal effective concentration (EC50) values.

[2] = system: HeLa cervical cancer cell line; assay: In-vitro cell survival assay (Alamar blue), HeLa; conditions: one day after compound addition
Method: as §1

[3] = system: U87 glioblastoma cell line; assay: In-vitro cell survival assay (Alamar blue), U87; conditions: U87, one day after compound addition
Method: as §1

[4] = system: LN18 glioblastoma cell line; assay: In-vitro cell survival assay (Alamar blue), LN18; conditions: LN18, one day after compound addition
Method: as §1

[5] = system: U118 glioblastoma cell line; assay: In-vitro cell survival assay (Alamar blue), U118; conditions: U118, one day after compound addition
Method: as §1

Row | SMILES | EC50 [1] | EC50 [2] | EC50 [3] | EC50 [4] | EC50 [5] | EC50 ([1]; 24 h) | EC50 ([2]; Homo sapiens, 24 h) | EC50 ([3]; 24 h) | EC50 ([4]; Homo sapiens, LN-18, 24 h) | EC50 ([5]; 24 h)
1 | CCOC(Nc1cc(-c2sccc2-n2c(C)ccc2C)[nH]n1)OCC [drawing 364] | > 100 µM | > 100 µM | 26 µM | > 100 µM | > 100 µM | – | – | – | – | –
2 | Cc1cccc(Nc2nccc(Nc3cccc(C(=O)Nc4ccc(F)cc4)c3)n2)c1 [drawing 382] | – | – | – | – | – | 75 µM | 14 µM | 27 µM | 6 µM | 30 µM
3 | Cc1[nH]c2nc(NCc3cccc([N+](=O)[O-])c3)nn2c(=O)c1Cc1ccccc1 [drawing 359] | – | – | – | – | – | > 100 µM | > 100 µM | 45 µM | > 100 µM | > 100 µM
4 | O=C(NNc1cc(C(F)(F)F)ccc1Cl)c1cccnc1Oc1ccccc1 [drawing 390] | – | – | – | – | – | > 100 µM | 59 µM | 96 µM | 58 µM | > 100 µM
5 | Nc1nc(Nc2ccc(C(=O)NCCc3ccncc3)cc2)cc(Nc2ccc3ncsc3c2)n1 [drawing 417] | – | – | – | – | – | 33 µM | 22 µM | 17 µM | > 100 µM | > 100 µM
6 | O=C(NCc1ccco1)c1cccc(Nc2nccc(Nc3ccc4ncsc4c3)n2)c1 [drawing 376] | – | – | – | – | – | 35 µM | 10 µM | 21 µM | 10 µM | 18 µM
7 | Cc1ccc(Cn2c(NCc3nc4ccccc4n3C)nc3ccccc32)cc1 [drawing 355] | – | – | – | – | – | > 100 µM | > 100 µM | > 100 µM | > 100 µM | > 100 µM
8 | O=C1c2ccccc2C(=O)N1C[C@H](O)Cn1nc(-c2cccs2)c2ccccc2c1=O [drawing 405] | – | – | – | – | – | > 100 µM | > 100 µM | > 100 µM | > 100 µM | > 100 µM
9 | C[C@H](O)CN(C[C@H](C)O)C(=O)c1cccc(Nc2nccc(Nc3ccc4ncsc4c3)n2)c1 [drawing 420] | – | – | – | – | – | 19 µM | 14 µM | 21 µM | 31 µM | 31 µM
10 | Nc1nc(Nc2ccc(C(=O)N3CCCCCC3)cc2)cc(Nc2ccc3ncsc3c2)n1 [drawing 409] | – | – | – | – | – | > 100 µM | 50 µM | 25 µM | 14 µM | > 100 µM
11 | O=C(NCCc1ccccc1)c1cccc(Nc2nccc(Nc3ccc4ncsc4c3)n2)c1 [drawing 418] | – | – | – | – | – | 38 µM | 15 µM | 13 µM | 11 µM | 24 µM
12 | Cc1ccc(-n2cc(-c3cccs3)nc2SCc2n[nH]c(=S)n2Cc2ccccc2)cc1 [drawing 393] | > 100 µM | > 100 µM | 24 µM | > 100 µM | > 100 µM | – | – | – | – | –
13 | Cc1ccc(F)cc1S(=O)(=O)Nc1cccc(C(=O)OCC(=O)NC2CCCCC2)c1 [drawing 404] | – | – | – | – | – | > 100 µM | > 100 µM | 33 µM | > 100 µM | > 100 µM
14 | CCN(CCO)c1nc(Nc2ccc(F)cc2)c2cnn(-c3ccccc3)c2n1 [drawing 386] | – | – | – | – | – | 57 µM | 54 µM | 10 µM | 7 µM | 58 µM
15 | O=C(c1cccc(Nc2nccc(Nc3ccc4ncsc4c3)n2)c1)N1CCCCC1 [drawing 438] | – | – | – | – | – | > 100 µM | 19 µM | 20 µM | 12 µM | 52 µM
16 | Cc1ccc(CNC(=O)c2cccc(Nc3nccc(Nc4ccc5ncsc5c4)n3)c2)o1 [drawing 419] | – | – | – | – | – | 19 µM | 10 µM | 16 µM | 7 µM | 17 µM
17 | COc1ccccc1C1C(C#N)=C(N)Oc2[nH]nc(C(F)(F)F)c21 (centres unmarked) | 84 µM | 90 µM | 80 µM | 62 µM | > 100 µM | – | – | – | – | –

Row | SMILES | EC50 [1] | EC50 [2] | EC50 [3] | EC50 [4] | EC50 [5] | EC50 ([1]; 24 h) | EC50 ([2]; Homo sapiens, 24 h) | EC50 ([3]; 24 h) | EC50 ([4]; Homo sapiens, LN-18, 24 h) | EC50 ([5]; 24 h)
18 | COc1ccc(C(NC(=O)c2[nH]nc(-c3ccccc3)c2C)c2ccncc2)cc1 (centres unmarked) | > 100 µM | > 100 µM | > 100 µM | 59 µM | > 100 µM | – | – | – | – | –
19 | Cc1cccc(Nc2nccc(Nc3cccc(C(=O)NCCN4CCOCC4)c3)n2)c1 [drawing 381] | – | – | – | – | – | 54 µM | 43 µM | 36 µM | 11 µM | 17 µM
20 | Cc1cccc(Nc2nccc(Nc3cccc(C(=O)NCc4ccccc4F)c3)n2)c1 [drawing 412] | – | – | – | – | – | 34 µM | 9 µM | 11 µM | 6 µM | 16 µM
21 | CCN(CC)CCNC(=O)c1cccc(Nc2nccc(Nc3ccc4ncsc4c3)n2)c1 [drawing 373] | – | – | – | – | – | 45 µM | 15 µM | 37 µM | 15 µM | 35 µM
22 | CN1CCN(C(=O)c2cccc(Nc3nccc(Nc4ccc5ncsc5c4)n3)c2)CC1 [drawing 415] | – | – | – | – | – | 32 µM | 11 µM | 22 µM | 14 µM | 39 µM
23 | O=C(c1cccc(-c2noc(-c3n[nH]c4c3CCCC4)n2)c1)N1CCCCC1 [drawing 385] | – | – | – | – | – | 83 µM | > 100 µM | 14 µM | 62 µM | 83 µM
24 | Cc1cccc(Nc2ccnc(Nc3cccc(C(=O)N4CC=CCC4)c3)n2)c1 [drawing 371] | – | – | – | – | – | > 100 µM | 25 µM | 17 µM | 13 µM | 28 µM
25 | C[C@@H](Oc1cc(-c2cnn(C3CCNCC3)c2)cnc1N)c1c(Cl)ccc(F)c1Cl [drawing 491] | – | – | – | – | – | 11.9 µM | 15 µM | 12 µM | 20 µM | 13 µM
26 | O=C1NCCN1CCN1C(=O)c2ccccc2N[C@H]1c1ccccc1 [drawing 391] | – | – | – | – | – | > 100 µM | > 100 µM | > 100 µM | 36 µM | 38 µM
27 | O=C1NN=C(c2ccccc2)/C1=C1\OC(c2ccccc2)=CS1 [drawing 392] | – | – | – | – | – | > 100 µM | 23 µM | 37 µM | 17 µM | 27 µM
28 | CC(C)CN(CC(C)C)C(=O)c1cccc(Nc2nccc(Nc3ccc4ncsc4c3)n2)c1 [drawing 424] | – | – | – | – | – | 54 µM | 15 µM | 17 µM | 22 µM | > 100 µM
29 | O=C(NNc1nc2ccccc2nc1Cc1ccccc1)c1cccc(Cl)c1 [drawing 366] | – | – | – | – | – | > 100 µM | > 100 µM | 25 µM | 22 µM | > 100 µM
30 | O=c1c(O)c(-c2ccc(O)c(O)c2)oc2cc(O)cc(O)c12 [drawing 406] | – | – | – | – | – | > 100 µM | 21 µM | 36 µM | 24 µM | 33 µM
31 | Cc1cccc(Nc2nccc(Nc3cccc(C(=O)N(C)CCCN(C)C)c3)n2)c1 [drawing 425] | – | – | – | – | – | > 100 µM | 39 µM | 46 µM | 89 µM | > 100 µM
32 | COc1cccc(Nc2cc(Nc3cccc(C(=O)N4CCN(C(C)=O)CC4)c3)nc(N)n2)c1 [drawing 377] | – | – | – | – | – | > 100 µM | > 100 µM | > 100 µM | 64 µM | 91 µM
33 | O=C(NCC(c1cccs1)S(=O)(=O)c1ccc(F)cc1)c1ccccc1 (centres unmarked) [drawing 434] | – | – | – | – | – | > 100 µM | 77 µM | 30 µM | 21 µM | 54 µM
34 | FC(F)(F)c1cc(-n2c(Cc3cccc4ccccc34)n[nH]c2=S)cc(C(F)(F)F)c1 [drawing 397] | > 100 µM | 62 µM | 20 µM | > 100 µM | > 100 µM | – | – | – | – | –
